Test results taken from patent publication US20100144858A1, “Treatment of movement disorders with a metabotropic glutamate 4 receptor positive allosteric modulator” (priority 2003, published 2010).
Entries after “also recorded” stand apart in the source; their conditions may differ. Like-named read-outs stand apart in the source and are kept apart here.

Experiments:
[1] = tested on: reserpine-induced akinesia; assay: Reserpine-induced akinesia model of Parkinson's disease; format: in vivo; details: rat, 75 nmol icv, reserpine 5 mg/kg sc, beam breaks/30 min
Description: Behavior: Third ventricle cannulated male Sprague-Dawley rats (250-350) were purchased from Taconic Farms (Germantown, N.Y.) with guide cannula implanted such that subsequent placement of an injection cannula allowed for infusion into the third ventricle. These rats were used for intracerebral ventricular (icy) injection of test compounds within one week of arrival to the testing facility. All experiments were carried out during the light cycle (6.00-18.00).
Rats were injected with reserpine (5 mg/kg sc, dissolved in 1% acetic acid) and kept in their home cages for 1.5-2 hr post-injection. Activity was measured by placing rats in photocell activity cages (Hamilton-Kinder, Inc., Poway, Calif.) equipped with 16×16 infrared beams. […] Five min following the injection of test compound or vehicle, motor activity was recorded for an additional 30 min for each rat. Motor activity (cumulative beam breaks/30-min period) was recorded both pre- and post-drug treatment for each rat. […] Post hoc comparisons were performed using the Bonferroni test. Statistical significance was achieved when p<0.05. Data are expressed as mean +/− one SEM.

human mGluR4 [2] = biological target: T1, human mGluR4 (Homo sapiens, UniProt Q14833); assay: FLIPR Ca2+ flux assay in mGluR4 CHO cells
Description: (§1) Cells expressing mGluR2, mGluR4, mGluR7 and mGluR8 were coexpressed with Gα16, Gαqi5, Gα15 and Gα15, respectively. Cells were evaluated using a fluorometric imaging plate reader (FLIPR, Molecular Devices, Sunnyvale, Calif.), to measure their ability to mobilize Ca^2+ in response to appropriate agonists (i.e., glutamate and L-AP4).
(§2) CHO or HEK cells expressing mGluR receptors (mGluR CHO or HEK cells) were plated (50,000-70,000 cells/well) in clear-bottomed, poly-D-lysine-coated plates (Becton-Dickinson) in glutamate/glutamine-free medium. The plated cells were grown overnight at 37° C. in the presence of 6% CO2. The following day, the cells were washed with 3×100 μl assay buffer (Hanks Balanced Salt Solution containing 20 mM HEPES, 2.5 mM probenecid, and 0.1% bovine serum albumin) using a Skatron Embla cell washer. The cells were incubated with 1 μM Fluo-4AM (Molecular Probes, Eugene, Oreg.) for 1 h at 37° C. and 6% CO2. The extracellular dye was removed by washing as described above. […] Ca^2+ flux was measured using a FLIPR.

rat mGluR4 = biological target: T2, rat mGluR4 (Rattus norvegicus, UniProt P31423); assay: FLIPR Ca2+ flux assay, rat mGluR4; format: cell-based; details: n=3, read-out: EC50 for L-AP4 activation of rat mGluR4
T2 construct: expressed in transfected cells; host or cells: CHO or HEK cells, co-expressing Gαqi5

striato-pallidal synapse = assay: Brain slice whole-cell patch-clamp, evoked IPSCs at striato-pallidal synapse; set-up: species or system rat; details: for effect on striato-pallidal transmission, compound alone: L-AP4 1 μM, PHCCC 30 μM, rat brain slice
Description: Animals: All studies were performed in an AAALAC accredited facility in accordance with all applicable guidelines regarding the care and use of animals. Animals were group housed with access to food and water ad libitum. Slice Preparation: All experiments were performed on slices from 26 to 30-d-old Sprague Dawley rats (Taconic, Germantown, N.Y.). Animals were killed by decapitation and brains were rapidly removed and submerged in an ice-cold solution containing (in mM): choline chloride 126, KCl 2.5, NaH2PO4 1.2, MgCl2 1.3, MgSO4 8, glucose 10, and NaHCO3 26, equilibrated with 95% O2/5% CO2 (11). The brain was glued to the chuck of a vibrating blade microtome (Leics Microsystems, Nussloch GmbH) and parasagittal slices (300 μm thick) were obtained. Slices were immediately transferred to a 500 ml holding chamber containing artificial cerebrospinal fluid (in mM): NaCl 124, KCl 2.5, MgSO4 1.3, NaH2PO4 1.0, CaCl2 2, glucose 20, and NaHCO3 26, equilibrated with 95% O2/5% CO2 that was maintained at 32° C. After 20-min at 32° C., the holding chamber was allowed to gradually decrease to room temperature. In all experiments 5 μM glutathione, 500 μM pyruvate, and 250 μM kynurenic acid were included in the choline chloride buffer and in the holding chamber ACSF. Electrophysiology: Whole-cell patch-clamp recordings were obtained (Marino et al., (2001) J. Neurosci. 21: 7001-7012. During recording, slices were maintained fully submerged on the stage of a 1 ml brain slice chamber at 32° C. and perfused continuously with equilibrated ACSF (2-3 ml/min). Neurons were visualized using a differential interference contrast microscope and an infrared video system. Patch electrodes were pulled from borosilicate glass on a two-stage puller and had resistances in the range of 3-7 MΩ when filled with the following internal solution: (in mM): potassium gluconate 125, NaCl 4, NaH2PO4 6, CaCl2 1, MgSO4 2, BAPTA-tetrapotassium salt 10, HEPES 10, Mg-ATP 2, Na2-GTP 0.3, pH=7.4. All recordings were done using HEKA EPC9 patch clamp amplifiers (HEKA Elektronik, Lambrecht/Pfalz, Germany). […]

human mGluR4 [3] = biological target: T1, human mGluR4; assay: FLIPR Ca2+ flux assay, human mGluR4; format: cell-based; set-up: expressed in transfected cells; host or cells: CHO or HEK cells, co-expressing Gαqi5; details: n=3, read-out: EC50 for L-AP4 activation of human mGluR4
Target sequence in this assay (Q14833 33-912): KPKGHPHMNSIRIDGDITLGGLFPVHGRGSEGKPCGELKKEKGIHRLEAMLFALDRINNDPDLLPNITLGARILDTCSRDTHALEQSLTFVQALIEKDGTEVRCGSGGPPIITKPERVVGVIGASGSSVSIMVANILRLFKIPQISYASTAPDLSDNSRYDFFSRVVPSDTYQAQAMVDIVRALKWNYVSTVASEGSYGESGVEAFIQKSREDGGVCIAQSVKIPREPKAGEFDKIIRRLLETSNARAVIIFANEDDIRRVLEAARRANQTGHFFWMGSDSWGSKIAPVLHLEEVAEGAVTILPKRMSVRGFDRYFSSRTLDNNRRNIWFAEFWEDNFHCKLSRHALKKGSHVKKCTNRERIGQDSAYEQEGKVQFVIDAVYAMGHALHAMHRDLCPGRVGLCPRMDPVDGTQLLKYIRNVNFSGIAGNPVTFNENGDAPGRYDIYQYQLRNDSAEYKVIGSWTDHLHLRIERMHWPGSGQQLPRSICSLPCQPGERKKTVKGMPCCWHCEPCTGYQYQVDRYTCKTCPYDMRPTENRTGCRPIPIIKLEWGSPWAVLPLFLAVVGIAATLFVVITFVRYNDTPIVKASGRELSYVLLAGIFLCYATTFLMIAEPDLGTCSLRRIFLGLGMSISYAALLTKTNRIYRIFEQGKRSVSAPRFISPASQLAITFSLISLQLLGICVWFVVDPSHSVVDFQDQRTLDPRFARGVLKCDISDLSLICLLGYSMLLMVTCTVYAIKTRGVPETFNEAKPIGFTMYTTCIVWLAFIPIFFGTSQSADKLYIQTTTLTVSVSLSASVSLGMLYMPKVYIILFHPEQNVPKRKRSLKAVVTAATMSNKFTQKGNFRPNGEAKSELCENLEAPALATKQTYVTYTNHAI
Description: as §1, §2

any other mGluR subtype = assay: FLIPR Ca2+ flux assay, other mGluR subtypes (activation or potentiation); format: cell-based; details: 10 μM
mGluR1b = biological target: T3, mGluR1b (Homo sapiens, UniProt Q13255); assay: FLIPR Ca2+ flux assay, mGluR1b antagonism; format: cell-based; details: 10 μM
T3 construct: expressed in transfected cells; host or cells: CHO or HEK cells

mGluR2 = biological target: T4, mGluR2 (Homo sapiens, UniProt Q14416); assay: FLIPR Ca2+ flux assay, mGluR2 antagonism; format: cell-based; details: 10 μM
T4 construct: expressed in transfected cells; host or cells: CHO or HEK cells, co-expressing Gα16

mGluR5a = biological target: T5, mGluR5a (Homo sapiens, UniProt P41594); assay: FLIPR Ca2+ flux assay, mGluR5a antagonism; format: cell-based; details: 10 μM
T5 construct: expressed in transfected cells; host or cells: CHO or HEK cells

mGluR8 = biological target: T6, mGluR8 (Homo sapiens, UniProt O00222); assay: FLIPR Ca2+ flux assay, mGluR8 antagonism; format: cell-based; details: 10 μM
T6 construct: expressed in transfected cells; host or cells: CHO or HEK cells, co-expressing Gα15

[4] = tested on: Schaffer collateral-CA1 (SC-CA1) synapse (mGluR7); assay: Hippocampal field recordings (fEPSPs), SC-CA1 synapse; set-up: species or system rat; details: submaximal L-AP4; fEPSP slope
[5] = tested on: lateral perforant path-dentate gyrus (LPP-DG) synapse (mGluR8); assay: Hippocampal field recordings (fEPSPs), LPP-DG synapse; set-up: species or system rat; details: submaximal L-AP4; fEPSP slope
mGluR4 = assay: FLIPR Ca2+ flux assay in mGluR4 CHO cells; details: in the presence of 10 μM PHCCC
Description: as §1, §2

T2 sequence (P31423 33-912): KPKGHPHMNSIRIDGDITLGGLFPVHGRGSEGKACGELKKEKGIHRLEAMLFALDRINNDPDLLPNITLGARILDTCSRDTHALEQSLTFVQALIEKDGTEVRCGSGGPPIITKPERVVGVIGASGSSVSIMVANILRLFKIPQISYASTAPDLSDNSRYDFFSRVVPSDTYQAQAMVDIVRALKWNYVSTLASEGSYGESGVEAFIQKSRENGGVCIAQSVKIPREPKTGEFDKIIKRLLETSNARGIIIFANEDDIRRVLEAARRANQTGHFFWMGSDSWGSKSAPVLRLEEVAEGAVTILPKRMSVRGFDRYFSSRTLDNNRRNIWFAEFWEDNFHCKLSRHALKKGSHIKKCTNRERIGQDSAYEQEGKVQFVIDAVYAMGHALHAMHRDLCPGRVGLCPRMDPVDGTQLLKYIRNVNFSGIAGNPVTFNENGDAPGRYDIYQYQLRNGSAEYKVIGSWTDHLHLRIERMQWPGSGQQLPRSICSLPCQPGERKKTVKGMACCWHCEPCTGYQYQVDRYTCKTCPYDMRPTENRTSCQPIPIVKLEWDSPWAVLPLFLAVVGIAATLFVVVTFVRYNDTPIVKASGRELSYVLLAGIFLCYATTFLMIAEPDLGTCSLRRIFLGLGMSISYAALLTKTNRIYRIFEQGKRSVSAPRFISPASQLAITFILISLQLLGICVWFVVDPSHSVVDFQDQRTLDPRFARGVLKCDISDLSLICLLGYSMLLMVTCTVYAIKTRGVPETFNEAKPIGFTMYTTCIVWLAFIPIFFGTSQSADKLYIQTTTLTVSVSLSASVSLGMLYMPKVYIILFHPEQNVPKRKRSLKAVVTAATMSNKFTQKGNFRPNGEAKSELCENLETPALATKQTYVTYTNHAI
T6 sequence (O00222 34-908, species assumed): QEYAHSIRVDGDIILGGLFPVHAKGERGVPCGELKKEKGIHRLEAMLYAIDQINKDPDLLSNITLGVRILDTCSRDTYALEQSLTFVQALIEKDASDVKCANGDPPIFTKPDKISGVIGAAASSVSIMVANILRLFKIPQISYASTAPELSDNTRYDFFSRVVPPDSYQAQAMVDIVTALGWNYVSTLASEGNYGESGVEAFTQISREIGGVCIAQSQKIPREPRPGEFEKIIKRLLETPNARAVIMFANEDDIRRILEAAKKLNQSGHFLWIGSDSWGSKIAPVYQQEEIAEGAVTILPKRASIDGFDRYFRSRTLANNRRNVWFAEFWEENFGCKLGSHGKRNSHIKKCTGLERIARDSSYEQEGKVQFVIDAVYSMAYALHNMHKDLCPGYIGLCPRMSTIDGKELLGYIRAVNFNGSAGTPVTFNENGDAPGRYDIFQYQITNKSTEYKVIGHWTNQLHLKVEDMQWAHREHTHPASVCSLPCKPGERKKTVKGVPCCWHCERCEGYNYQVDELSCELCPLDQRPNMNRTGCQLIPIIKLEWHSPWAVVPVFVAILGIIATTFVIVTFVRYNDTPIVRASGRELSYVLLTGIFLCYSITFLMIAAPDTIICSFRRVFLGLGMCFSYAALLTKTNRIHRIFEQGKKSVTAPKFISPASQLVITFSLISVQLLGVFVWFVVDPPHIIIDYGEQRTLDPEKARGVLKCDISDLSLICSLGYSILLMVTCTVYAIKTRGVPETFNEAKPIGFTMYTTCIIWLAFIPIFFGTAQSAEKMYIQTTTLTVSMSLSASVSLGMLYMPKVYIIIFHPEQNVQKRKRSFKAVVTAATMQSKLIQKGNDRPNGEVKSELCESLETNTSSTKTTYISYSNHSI
T3 sequence (Q13255 19-906 isoform Q13255-2 limits assumed): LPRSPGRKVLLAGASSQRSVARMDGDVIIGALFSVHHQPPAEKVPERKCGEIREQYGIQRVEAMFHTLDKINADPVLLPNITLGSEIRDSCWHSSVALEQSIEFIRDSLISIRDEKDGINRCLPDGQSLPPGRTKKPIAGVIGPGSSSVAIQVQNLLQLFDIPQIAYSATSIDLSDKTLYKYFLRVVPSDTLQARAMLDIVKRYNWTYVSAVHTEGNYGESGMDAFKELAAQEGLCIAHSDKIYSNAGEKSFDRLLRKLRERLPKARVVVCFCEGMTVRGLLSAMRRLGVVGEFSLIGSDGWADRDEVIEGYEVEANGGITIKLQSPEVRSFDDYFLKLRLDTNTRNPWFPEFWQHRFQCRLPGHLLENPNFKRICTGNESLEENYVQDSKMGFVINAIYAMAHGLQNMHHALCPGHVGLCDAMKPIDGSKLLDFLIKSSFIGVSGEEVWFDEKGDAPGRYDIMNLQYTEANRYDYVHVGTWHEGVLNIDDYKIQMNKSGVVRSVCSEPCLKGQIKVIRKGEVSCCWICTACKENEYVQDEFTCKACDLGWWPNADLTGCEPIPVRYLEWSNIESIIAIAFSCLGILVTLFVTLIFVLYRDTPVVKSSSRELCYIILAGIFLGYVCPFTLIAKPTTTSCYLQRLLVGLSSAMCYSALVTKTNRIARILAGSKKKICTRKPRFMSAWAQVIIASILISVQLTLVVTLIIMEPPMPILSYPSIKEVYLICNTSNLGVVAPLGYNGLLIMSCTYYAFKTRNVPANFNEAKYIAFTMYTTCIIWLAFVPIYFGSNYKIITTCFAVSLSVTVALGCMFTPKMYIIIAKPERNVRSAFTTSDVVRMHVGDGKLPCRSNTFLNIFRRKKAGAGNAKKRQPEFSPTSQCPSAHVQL
T5 sequence (P41594 21-1180 isoform P41594-2 limits assumed): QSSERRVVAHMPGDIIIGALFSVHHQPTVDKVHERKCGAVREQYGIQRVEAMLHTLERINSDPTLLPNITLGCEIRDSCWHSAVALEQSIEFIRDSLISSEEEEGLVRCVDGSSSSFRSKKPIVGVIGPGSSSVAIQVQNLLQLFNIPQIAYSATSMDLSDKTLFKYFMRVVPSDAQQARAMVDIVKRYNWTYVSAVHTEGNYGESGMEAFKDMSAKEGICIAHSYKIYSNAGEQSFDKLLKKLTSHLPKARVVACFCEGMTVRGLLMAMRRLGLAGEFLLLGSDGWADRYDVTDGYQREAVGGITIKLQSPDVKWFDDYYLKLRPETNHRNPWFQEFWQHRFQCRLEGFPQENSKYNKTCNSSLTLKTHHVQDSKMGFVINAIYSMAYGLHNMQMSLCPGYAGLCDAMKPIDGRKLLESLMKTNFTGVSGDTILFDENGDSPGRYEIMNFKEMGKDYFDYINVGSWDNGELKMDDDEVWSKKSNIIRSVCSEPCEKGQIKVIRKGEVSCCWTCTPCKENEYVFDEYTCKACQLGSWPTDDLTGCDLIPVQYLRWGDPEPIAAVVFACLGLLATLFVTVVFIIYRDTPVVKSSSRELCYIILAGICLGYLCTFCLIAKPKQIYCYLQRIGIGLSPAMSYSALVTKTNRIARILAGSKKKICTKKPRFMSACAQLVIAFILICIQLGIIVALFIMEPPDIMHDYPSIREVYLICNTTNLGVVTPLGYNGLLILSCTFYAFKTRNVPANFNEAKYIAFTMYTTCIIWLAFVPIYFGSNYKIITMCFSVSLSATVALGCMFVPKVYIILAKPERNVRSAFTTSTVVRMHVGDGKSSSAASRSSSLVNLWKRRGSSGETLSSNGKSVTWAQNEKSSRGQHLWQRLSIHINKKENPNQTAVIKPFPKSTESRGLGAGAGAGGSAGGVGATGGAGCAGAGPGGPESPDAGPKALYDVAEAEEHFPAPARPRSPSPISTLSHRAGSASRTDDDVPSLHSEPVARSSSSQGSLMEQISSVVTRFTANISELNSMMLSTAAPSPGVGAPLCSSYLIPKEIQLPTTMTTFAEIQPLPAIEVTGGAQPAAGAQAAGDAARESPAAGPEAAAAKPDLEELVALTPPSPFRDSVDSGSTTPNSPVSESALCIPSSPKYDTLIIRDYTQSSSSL

| Molecule | locomotor activity (reversal of reserpine-induced akinesia) [1] | effect on the response of mGluR4 to agonists (potentiation) (human mGluR4 [2]; concentrations up to 30 μM) | IC50 (human mGluR4 [2]; read-out: mGluR4 antagonist IC50, at higher concentrations) [nM] | EC50 (rat mGluR4; with 10 μM PHCCC) [nM] | EC50 (rat mGluR4; without PHCCC) [nM] | effect on striato-pallidal transmission, compound alone (striato-pallidal synapse) | EC50 (human mGluR4 [3]; in the absence of PHCCC) [nM] | EC50 (human mGluR4 [3]; with 10 μM PHCCC) [nM] | activation or potentiation of responses of other mGluR subtypes (any other mGluR subtype) | block of response of mGluR1b to glutamate (mGluR1b) | block of response of mGluR2 to glutamate (mGluR2) | block of response of mGluR5a to glutamate (mGluR5a) | block of response of mGluR8 to glutamate (mGluR8) | effect on striato-pallidal transmission, co-application with L-AP4 (striato-pallidal synapse; 30 μM PHCCC and 1 μM L-AP4, p<0.01, n=4) | effect on L-AP4-induced inhibition of transmission at SC-CA1 synapse [4] | effect on L-AP4-induced inhibition of transmission at LPP-DG synapse [5] | increase of the maximal effect of L-AP4 (mGluR4) |
| --- | --- | --- | --- | --- | --- | --- | --- | --- | --- | --- | --- | --- | --- | --- | --- | --- | --- |
| 7-(hydroxylimino)cyclopropa[b]chromen-1a-carboxamide ethyl ester [CPCCOEt] | no effect | no mGluR4 potentiator activity; also recorded: did not have any effect | > 100000 |  |  |  |  |  |  |  |  |  |  |  |  |  |  |
| NC(CCP(=O)(O)O)C(=O)O [L-AP4] |  |  |  | 67.6 ± 5.2 | 832 ± 100 | small but significant inhibition | 484 ± 45 | 71.4 ± 2.9 |  |  |  |  |  |  |  |  |  |
| N-phenyl-7-(hydroxylimino)cyclopropa[b]chromen-1a-carboxamide [PHCCC] | overcome inhibition of movement; also recorded: significant increase in locomotor activity |  |  |  |  | no effect |  |  | does not potentiate or activate any other mGluR subtype; also recorded: did not activate or potentiate | partially blocked | partially blocked | partially blocked | partially blocked | potentiate the effect of the mGluR4 agonist L-AP4 in inhibiting transmission; also recorded: marked inhibition | no significant effect | no significant effect | approximately two-fold |
